According to patent US8802597B2, “Herbicidal pyrimidines” (E I du Pont de Nemours and Company, priority 2003, dated 2014):
Read-outs that look alike come from different tables or passages of the source.

Legend:
Experiment in all cases: Test C pre/postemergence
Type in all cases: in vivo
[1] = test system: lambsquarters (Chenopodium album); conditions: Chenopodium album, pre-emergence, Preemergence, read-out: Plant response rating, Lambsquarters
Outline: (§1)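 Applications: preemergence onto seeded soil and postemergence onto 1- to 4-leaf seedlings, compound carried in non-phytotoxic solvent plus surfactant. Kept in greenhouse 12 to 14 days. Scored visually relative to untreated controls, 0 (no effect) to 100 (complete control).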

[2] = test system: morningglory (Ipomoea coccinea); conditions: Ipomoea; for pest or weed control at 62 g/ha: 62 g ai/ha; for pest or weed control at 125 g/ha: 125 g ai/ha; for pest or weed control at 250 g/ha: 250 g ai/ha; for pest or weed control at 500 g/ha: 500 g ai/ha
Outline: as §1

soybean (Glycine max) = conditions: Glycine max; for plant injury at 62 g/ha: 62 g ai/ha; for plant injury at 125 g/ha: 125 g ai/ha; for plant injury at 250 g/ha: 250 g ai/ha; for plant injury at 500 g/ha: 500 g ai/ha
Outline: as §1

[3] = test system: velvetleaf (Abutilon theophrasti); conditions: Abutilon theophrasti; for pest or weed control at 62 g/ha: 62 g ai/ha; for pest or weed control at 125 g/ha: 125 g ai/ha; for pest or weed control at 250 g/ha: 250 g ai/ha; for pest or weed control at 500 g/ha: 500 g ai/ha
Outline: as §1

[4] = test system: woolly cupgrass (Eriochloa villosa); conditions: Eriochloa villosa; for pest or weed control at 62 g/ha: 62 g ai/ha; for pest or weed control at 125 g/ha: 125 g ai/ha; for pest or weed control at 250 g/ha: 250 g ai/ha; for pest or weed control at 500 g/ha: 500 g ai/ha
Outline: as §1

[5] = test system: yellow nutsedge (Cyperus esculentus); conditions: Cyperus; for pest or weed control at 62 g/ha: 62 g ai/ha; for pest or weed control at 125 g/ha: 125 g ai/ha; for pest or weed control at 250 g/ha: 250 g ai/ha; for pest or weed control at 500 g/ha: 500 g ai/ha
Outline: as §1

[6] = post-emergence, Postemergence, scale 0 to 100 (0 no effect, 100 complete control), read-out: Morningglory plant response rating
[7] = post-emergence, Postemergence, scale 0 to 100, read-out: Plant response rating, Morningglory
[8] = pre-emergence, Preemergence, scale 0 to 100, read-out: Plant response rating, Morningglory
[9] = post-emergence, Postemergence, scale 0 to 100 (0 no effect, 100 complete control), read-out: Soybean plant response rating
[10] = post-emergence, Postemergence, scale 0 to 100, read-out: Plant response rating, Soybean
[11] = pre-emergence, Preemergence, scale 0 to 100, read-out: Plant response rating, Soybean
[12] = post-emergence, Postemergence, scale 0 to 100 (0 no effect, 100 complete control), read-out: Velvetleaf plant response rating
[13] = post-emergence, Postemergence, scale 0 to 100, read-out: Plant response rating, Velvetleaf
[14] = pre-emergence, Preemergence, scale 0 to 100, read-out: Plant response rating, Velvetleaf
[15] = post-emergence, Postemergence, scale 0 to 100 (0 no effect, 100 complete control), read-out: Cupgrass, Woolly plant response rating
[16] = post-emergence, Postemergence, scale 0 to 100, read-out: Plant response rating, Cupgrass, Woolly
[17] = pre-emergence, Preemergence, scale 0 to 100, read-out: Plant response rating, Cupgrass, Woolly
[18] = post-emergence, Postemergence, scale 0 to 100 (0 no effect, 100 complete control), read-out: Nutsedge, Yellow plant response rating
[19] = post-emergence, Postemergence, scale 0 to 100, read-out: Plant response rating, Nutsedge, Yellow
[20] = pre-emergence, Preemergence, scale 0 to 100, read-out: Plant response rating, Nutsedge, Yellow

Structure (SMILES): Nc1nc(C2CC2)nc(C(=O)O)c1Br [Compound 8]
- pest or weed control at 62 g/ha ([1]; 62 g ai/ha, scale 0 to 100, 0 no effect, 100 complete control): 0%
- pest or weed control at 125 g/ha ([1]; 125 g ai/ha, scale 0 to 100): 20%
- pest or weed control at 250 g/ha ([1]; 250 g ai/ha, scale 0 to 100): 90%
- pest or weed control at 500 g/ha ([1]; 500 g ai/ha, scale 0 to 100): 100%
- pest or weed control at 62 g/ha [2, 6]: 95%
- pest or weed control at 125 g/ha [2, 6]: 95%
- pest or weed control at 250 g/ha [2, 7]: 100%
- pest or weed control at 500 g/ha [2, 7]: 100%
- pest or weed control at 62 g/ha ([2]; pre-emergence, Preemergence, scale 0 to 100, 0 no effect, 100 complete control, read-out: Plant response rating, Morningglory): 20%
- pest or weed control at 125 g/ha [2, 8]: 100%
- pest or weed control at 250 g/ha [2, 8]: 100%
- pest or weed control at 500 g/ha [2, 8]: 100%
- plant injury at 62 g/ha (soybean (Glycine max); [9]): 95%
- plant injury at 125 g/ha (soybean (Glycine max); [9]): 95%
- plant injury at 250 g/ha (soybean (Glycine max); [10]): 100%
- plant injury at 500 g/ha (soybean (Glycine max); [10]): 100%
- plant injury at 62 g/ha (soybean (Glycine max); pre-emergence, Preemergence, scale 0 to 100, 0 no effect, 100 complete control, read-out: Plant response rating, Soybean): 100%
- plant injury at 125 g/ha (soybean (Glycine max); [11]): 100%
- plant injury at 250 g/ha (soybean (Glycine max); [11]): 100%
- plant injury at 500 g/ha (soybean (Glycine max); [11]): 100%
- pest or weed control at 62 g/ha [3, 12]: 60%
- pest or weed control at 125 g/ha [3, 12]: 70%
- pest or weed control at 250 g/ha [3, 13]: 85%
- pest or weed control at 500 g/ha [3, 13]: 95%
- pest or weed control at 62 g/ha ([3]; pre-emergence, Preemergence, scale 0 to 100, 0 no effect, 100 complete control, read-out: Plant response rating, Velvetleaf): 65%
- pest or weed control at 125 g/ha [3, 14]: 75%
- pest or weed control at 250 g/ha [3, 14]: 100%
- pest or weed control at 500 g/ha [3, 14]: 100%
- pest or weed control at 62 g/ha [4, 15]: 30%
- pest or weed control at 125 g/ha [4, 15]: 60%
- pest or weed control at 250 g/ha [4, 16]: 75%
- pest or weed control at 500 g/ha [4, 16]: 85%
- pest or weed control at 62 g/ha ([4]; pre-emergence, Preemergence, scale 0 to 100, 0 no effect, 100 complete control, read-out: Plant response rating, Cupgrass, Woolly): 0%
- pest or weed control at 125 g/ha [4, 17]: 65%
- pest or weed control at 250 g/ha [4, 17]: 100%
- pest or weed control at 500 g/ha [4, 17]: 100%
- pest or weed control at 62 g/ha [5, 18]: 0%
- pest or weed control at 125 g/ha [5, 18]: 0%
- pest or weed control at 250 g/ha [5, 19]: 0%
- pest or weed control at 500 g/ha [5, 19]: 0%
- pest or weed control at 62 g/ha ([5]; pre-emergence, Preemergence, scale 0 to 100, 0 no effect, 100 complete control, read-out: Plant response rating, Nutsedge, Yellow): 0%
- pest or weed control at 125 g/ha [5, 20]: 0%
- pest or weed control at 250 g/ha [5, 20]: 100%
- pest or weed control at 500 g/ha [5, 20]: 100%
